What was measured:
[1] = system: Mycobacterium tuberculosis; experiment: In vitro MIC against Mycobacterium tuberculosis, microtiter plate, turbidity; type: cell-based; conditions: Mycobacterium tuberculosis strain Erdmann; 37° C., 18 to 21 days
Protocol: Antituberculosis activities were assessed in vitro using the biologically active dihydrotriazine metabolites of the imidodicarbonimidic diamides. The assay methodology is detailed as follows:
To tissue culture treated 96-well microtiter plates were added 20 μl of a solution of test compound. The plates were allowed to dry in an incubator at a temperature between 50° to 60° C. for 20 to 30 minutes. Then the plates were subjected to UV light for 15 minutes to kill bacteria. The plates were generally used within 2-3 days of being made. To each well was added 100 μl of culture broth and the appropriate strain of Mycobacterium tuberculosis or Mycobacterium avium. The plates were then incubated at 37° C. for between 18 days to 21 days. Growth was assessed by turbidity measurement and MICs reported in μg/ml.

Mycobacterium avium = experiment: In vitro MIC against Mycobacterium avium isolates, microtiter plate, turbidity; type: cell-based; conditions: 18 to 21 days
[2] = system: Plasmodium berghei (KBG strain); experiment: Mouse malaria model (modified Thomson model), percent survival; type: in vivo, CD-1 mice; conditions: twice a day for 3 days from day 3 post infection, orally or subcutaneously (route not stated), P. berghei infected mice
Protocol: Seven (7) mice are typically used in each experimental group. The mice are housed 3 to 4 per cage and are maintained at a temperature of […] with a 12-hour day light cycle. The mice are fed a standard Ralston Purina® mouse chow and given water ad. lib. Their cages and water bottles were changed twice a week.
Preparation of the test compounds oral administration involved grinding the material with a mortar and pestle before diluting in 0.5% hydroxyethylcellulose-Tween 80 (polyoxyethylene (20) sorbitan mono-oleate) for oral administration. For subcutaneous administration, the test compounds were suspended in peanut oil.
The mice were infected intraperitoneally with 50,000 red blood cells infected with a drug-sensitive strain of Plasmodium berghei (KBG strain) on day 0. The inoculum was obtained from a donor mouse having a parasitemia between 5% and 10%.
The compounds were administered according to the weight of the mice. The mice were weighed each day before the drugs were administered. Test compounds are given in a volume of 10 ml/kg of body weight. Compounds were administered either orally or subcutaneously twice a day (6 hours apart) for 3 days starting on the 3rd day post infection. Blood films were taken on day 6 post-infection and twice weekly for 30 days. The level of parasites (parasitemia) was determined from the Giemsa stained blood films.
Antimalarial activity was quantified by a percent survival calculated for each treated group on Day 31.

Molecule	MIC [1] [mg/L]	MIC (Mycobacterium avium; Mycobacterium avium strain 101, 37° C.) [mg/L]	MIC (Mycobacterium avium; Mycobacterium avium strain 3404-4, 37° C.) [mg/L]	MIC (Mycobacterium avium; Mycobacterium avium strain Farino, 37° C.) [mg/L]	MIC (Mycobacterium avium; Mycobacterium avium strain LPR, 37° C.) [mg/L]	% SURVIVAL AT DAY 31 ([2]; dose 4 mg/kg) [%]	% SURVIVAL AT DAY 31 ([2]; dose 8 mg/kg) [%]	% SURVIVAL AT DAY 31 ([2]; dose 16 mg/kg) [%]	% SURVIVAL AT DAY 31 ([2]; dose 32 mg/kg) [%]	% SURVIVAL AT DAY 31 ([2]; dose 64 mg/kg) [%]
CC1(C)NC(=N)NC(=N)N1OCCCOc1ccc(OC(F)(F)F)cc1.Cl [Metabolite of Compound of Example 5, 6,6-Dimethyl-1-[3-(4-trifluoromethoxy-phenoxy)-propoxy][1,3,5]triazinane-2,4-diylidenediamine hydrochloride]	19	3.1	0.6 ± 0.3	1 ± 0.85	37.5 ± 17.7					
1-(3-(4-trifluoromethoxyphenoxy)propyloxy)-5-isopropyl biguanide hemisuccinate [Compound of Example 5]						0	14	86	100	100
Cl.N=C(NOCCCOc1ccc(OC(F)(F)F)cc1)NC(=N)NC1CC1 [Compound of Example 6, 1-(3-(4-trifluoromethoxyphenoxy)propyloxy)-5-cyclopropylbiguanide hydrochloride]						0	14	43	71	100
